# What was measured:
# BTN3A [1] = experiment: mTOR/ISR compound treatment, surface BTN3A by flow cytometry in AAVS1 and PPAT KO Daudi-Cas9 cells; assay type: cell-based, human; conditions: control KO (AAVS1) and purine biosynthesis KO (PPAT) Daudi-Cas9 cells, 10 μM, 72 hours
# Experimental: Daudi-Cas9 AAVS1 and PPAT KO cells (190 μL) were seeded at 250,000 cells/mL in round-bottom 96-well plates. Cells received 10 μL of DMSO (vehicle) or one of the following compounds at a final concentration of 10 μM: sephin1 (APE×BIO), ISRIB (MedChemExpress), guanabenz acetate (MedChemExpress), Sal003 (MedChemExpress), salubrinal (MedChemExpress), raphin1 acetate (MedChemExpress), and rapamycin (MilliporeSigma). Edge wells were filled with 200 μL of sterile PBS or water. After being cultured for 72 hours, the cells were stained with APC-conjugated anti-human CD277 antibody (clone BT3.1, 1:50 dilution) (Miltenyi Biotec) and 7-AAD (1:150 dilution) (Tonbo), and analyzed on the Attune NxT flow cytometer.
# BTN3A1 = experiment: BTN3A expression genome-wide CRISPR knockout screen (FACS sort of surface BTN3A high/low cells); assay type: cell-based, human
# BTN3A [2] = experiment: Inhibitor dose response, surface BTN3A by flow cytometry in WT Daudi-Cas9 cells; assay type: cell-based, human; conditions: 72 hours, complete RPMI, vs vehicle
# Experimental: Daudi-Cas9 cells (180 μL) were seeded at 275,000 cells/mL in cRPMI in round-bottom 96-well plates. Twenty μL of zoledronate, rotenone (MedChemExpress), oligomycin A (Neta Scientific), FCCP (MedChemExpress), antimycin A (Neta Scientific), AICAR (Sigma), 2-DG (Sigma), Compound 991 (Selleck Chemical), A-769662 (Sigma), ethanol (vehicle), or DMSO (vehicle, at dilutions matching the treatment) at various concentrations were added to the cells. Plate edge wells were filled with 200 μL of sterile water or PBS. The cells were grown at 37° C. for 72 hours, and stained with APC-conjugated anti-human CD277 antibody (clone BT3.1, 1:50 dilution)(Miltenyi Biotec) and 7-AAD (1:150 dilution) (Tonbo). The cells were then analyzed on the Attune NxT flow cytometer.
# Daudi-Cas9 cells [3] = experiment: γδ TCR tetramer staining (G115 Vγ9Vδ2 TCR clone) of Daudi-Cas9 cells; assay type: cell-based, human; conditions: WT Daudi-Cas9 cells, 72 hours
# From the text: The G115 Vγ9Vδ2 TCR clone tetramer was generated using the following methods. The G115 γ-[…] chain sequence (Davodeau et al. J. Immunol. 151, 1214-1223 (1993)) was cloned into the pAcGP67A vector with a C-terminal acidic zipper, and the G115 δ-chain sequence (Davodeau et al. (1993)) as cloned into the pAcGP67A vector with a C-terminal AviTag followed by a basic zipper. Zippers stabilized the TCR complex. The TCR was expressed in the High Five baculovirus insect-cell expression system and purified via affinity chromatography over a Ni-NTA column. TCRs were biotinylated and biotinylation was confirmed using a TrapAvidin SDS-PAGE assay. The G115 TCR was then further purified using size-exclusion chromatography (Superdex200 100/300 GL column, GE Healthcare) and purity was confirmed via SDS-PAGE. Tetramers were generated by incubating biotinylated TCR with streptavidin conjugated to the PE fluorophore.
# Daudi-Cas9 KO cells were analyzed 13 and 14 days post-lentiviral transduction. WT Daudi-Cas9 cells were analyzed after being cultured for 72 hours with 0.5 mM AICAR, 80 μM Compound 991, DMSO (vehicle control at the concentration matching Compound 991), or nothing. […] Stained cells were analyzed on the Attune NxT flow cytometer.
# [4] = biological target: BTN2A1-BTN3A1-BTN3A2 cell surface complex on Daudi-Cas9 cells (human; Homo sapiens) (UniProt Q7KYR7); experiment: flow cytometry, PE-TCR tetramer (160 nM) staining of WT Daudi-Cas9 cells treated 72 h with 80 µM Compound 991 against DMSO
# [5] = biological target: BTN2A1-BTN3A1-BTN3A2 cell surface complex on Daudi-Cas9 cells (human; Homo sapiens) (UniProt Q7KYR7); experiment: flow cytometry, PE-TCR tetramer (160 nM) staining of WT Daudi-Cas9 cells treated 72 h with 0.5 mM AICAR against untreated cells
# BTN3A1 transcripts = experiment: RT-qPCR of drug-treated Daudi-Cas9 cells, BTN3A1; assay type: cell-based, human; conditions: 80 PM, 72 hours, normalized to ACTB and DMSO
# Experimental: (§1) For measurement on Daudi-Cas9 KOs, samples were collected at 13 days after lentiviral transduction. For measurements on drug-treated WT Daudi-Cas9 cells, 180 μL of Daudi-Cas9 cells were seeded in a round-bottom 96-well plate at 275,000 cells/mL. All surrounding wells were filled with 200 μL of sterile PBS or water. With four replicates per treatment, cells were treated with 20 μL of AICAR (final concentration 0.5 mM), Compound 991 (final concentration 80 PM), DMSO, or water. The cells were collected for RT-qPCR measurements after 72 hours of incubation. RNA was extracted from approximately 70,000 cells per sample using the Quick-RNA 96 Kit (Zymo Research) or Direct-zol RNA Microprep Kit (Zymo) according to the manufacturer's protocol without the optional on-column DNase I treatment. According to the manufacturer's protocol, 1 μL of RNA was immediately processed using the Maxima First Strand cDNA Synthesis Kit for RT-qPCR with the dsDNase treatment (Thermo Fisher). Two cDNA synthesis reactions, in addition to a reverse transcriptase minus (RT−) negative control reaction, were performed for each biological replicate. […] Ct values across the three technical replicates for each sample were assessed for significant outliers resulting from technical failures (any samples in triplicate with a standard deviation above 0.2 were assessed) and subsequently averaged. […]
# BTN3A2 transcripts = experiment: RT-qPCR of drug-treated Daudi-Cas9 cells, BTN3A2; assay type: cell-based, human; conditions: 80 PM, 72 hours, normalized to ACTB and DMSO
# Experimental: as §1
# BTN2A1 transcripts = experiment: RT-qPCR of drug-treated Daudi-Cas9 cells, BTN2A1; assay type: cell-based, human; conditions: 80 PM, 72 hours, normalized to ACTB and DMSO
# Experimental: as §1
# BTN3A [6] = experiment: Compound C dose response in combination with AICAR or OXPHOS inhibition, surface BTN3A; assay type: cell-based, human; parameters: BTN3A levels vs vehicle control: dose or concentration left out as unconfirmed
# Experimental: Daudi-Cas9 cells (170 μL) were seeded at 292,000 cells/mL in cRPMI in round-bottom 96-well plates. Ten μL of Compound C (Abcam) were added to all the cells at various concentrations. At indicated concentrations, 20 μL of rotenone, oligomycin A, FCCP, 2-DG, AICAR, or cRPMI (control) were added to the wells that received Compound C. Ten μL of DMSO at dilutions matching Compound C and 20 μL of cRPMI were added to the DMSO-only vehicle control wells. Plate edge wells were filled with 200 μL of sterile water or PBS. The cells were grown at 37° C. for 72 hours, stained with APC-conjugated anti-human CD277 antibody (clone BT3.1, 1:50 dilution) (Miltenyi Biotec) and 7-AAD (1:150 dilution) (Tonbo), and analyzed on the Attune NxT flow cytometer.
# Daudi-Cas9 cells [7] = experiment: Cancer-T cell co-culture genome-wide CRISPR knockout screen (Vγ9Vδ2 T cell killing); assay type: cell-based, human
# Chain of UniProt Q7KYR7 (Q7KYR7 29-527, chain 1 of 3): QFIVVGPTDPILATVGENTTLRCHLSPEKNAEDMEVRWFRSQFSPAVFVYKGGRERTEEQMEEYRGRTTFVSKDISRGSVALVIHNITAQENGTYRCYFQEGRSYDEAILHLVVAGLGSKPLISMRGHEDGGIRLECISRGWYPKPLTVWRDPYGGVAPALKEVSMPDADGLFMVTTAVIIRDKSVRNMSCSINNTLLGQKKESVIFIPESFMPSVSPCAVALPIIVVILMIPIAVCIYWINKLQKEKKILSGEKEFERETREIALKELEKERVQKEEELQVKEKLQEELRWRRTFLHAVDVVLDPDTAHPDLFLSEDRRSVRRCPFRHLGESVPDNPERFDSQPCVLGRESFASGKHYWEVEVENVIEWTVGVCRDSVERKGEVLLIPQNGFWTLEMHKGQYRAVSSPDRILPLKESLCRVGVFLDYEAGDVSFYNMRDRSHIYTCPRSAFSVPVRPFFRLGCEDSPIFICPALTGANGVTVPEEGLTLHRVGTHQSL
# Chain of UniProt Q7KYR7 (chain, as listed by the source, chain 2 of 3): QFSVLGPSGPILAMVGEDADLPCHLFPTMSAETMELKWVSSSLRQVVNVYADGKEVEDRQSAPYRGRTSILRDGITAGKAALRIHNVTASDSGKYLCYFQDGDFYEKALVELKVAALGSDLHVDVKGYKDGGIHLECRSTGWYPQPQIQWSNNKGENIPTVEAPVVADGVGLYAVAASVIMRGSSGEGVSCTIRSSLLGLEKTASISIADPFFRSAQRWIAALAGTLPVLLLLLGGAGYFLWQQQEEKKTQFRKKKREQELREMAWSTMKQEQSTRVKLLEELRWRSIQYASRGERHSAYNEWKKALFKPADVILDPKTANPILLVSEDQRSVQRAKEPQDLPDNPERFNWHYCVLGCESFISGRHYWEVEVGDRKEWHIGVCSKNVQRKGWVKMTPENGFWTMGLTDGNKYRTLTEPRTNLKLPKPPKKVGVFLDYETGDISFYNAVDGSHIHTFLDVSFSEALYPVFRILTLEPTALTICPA
# Chain of UniProt Q7KYR7 (chain, as listed by the source, chain 3 of 3): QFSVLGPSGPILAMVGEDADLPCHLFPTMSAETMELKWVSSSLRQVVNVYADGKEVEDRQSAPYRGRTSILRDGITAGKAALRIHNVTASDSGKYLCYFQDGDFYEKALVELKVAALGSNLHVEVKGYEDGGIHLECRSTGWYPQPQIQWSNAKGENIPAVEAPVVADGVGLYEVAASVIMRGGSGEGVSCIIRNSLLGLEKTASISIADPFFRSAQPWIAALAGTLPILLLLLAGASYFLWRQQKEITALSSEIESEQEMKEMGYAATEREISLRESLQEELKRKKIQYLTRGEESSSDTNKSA
compound,measurement,setting,value
O=C(COc1ccc(Cl)cc1)NC1CCC(NC(=O)COc2ccc(Cl)cc2)CC1 (stereo not drawn) [ISRIB],BTN3A surface expression,BTN3A [1],negligible effects
COQ2,Log2 Fold Change,"BTN3A1; Table 2, positive regulators of BTN3A1, gene knockout in Daudi-Cas9 cells, FACS sort on surface BTN3A1 (anti-BTN3A1 clone BT3.1), three replicates",1.1343
"NC(=O)c1ncn([C@@H]2O[C@H](CO)[C@@H](O)[C@H]2O)c1N [AICAR, N^1-(β-D-Ribofuranosyl)-5-aminoimidazole-4-carboxamide]",surface BTN3A (MFI),BTN3A [2],dramatic increase in surface BTN3A
same,increase in G115 Vγ9Vδ2 TCR tetramer staining,Daudi-Cas9 cells [3]; 0.5 mM,40-80%
RPIA,Log2 Fold Change,"BTN3A1; gene knockout in Daudi cells expressing Cas9, genome wide CRISPR knockout screen sorted on surface BTN3A1, Table 1 Negative Regulators of BTN3A1",−1.4533
"O=P(O)(O)C(O)(Cn1ccnc1)P(=O)(O)O [ZOL, zoledronate]",surface BTN3A (MFI),BTN3A [2],substantial and dose-dependent increase in BTN3A
PE-conjugated Vγ9Vδ2 TCR (clone G115) tetramer (from UniProt P22629 37-163),fold tetramer staining against vehicle control-treated cells,[4],5 fold
same,percent increase of tetramer staining,[5],40 to 80%
CC[C@H]1/C=C/C=C/C[C@@H](C)[C@H](O)[C@@](C)(O)C(=O)[C@@H](C)[C@H](O)[C@@H](C)C(=O)[C@@H](C)[C@H](O)[C@@H](C)/C=C/C(=O)O[C@@H]2[C@H](C)[C@H](CC1)O[C@]1(CC[C@H](C)[C@H](C[C@@H](C)O)O1)[C@H]2C [oligomycin A],surface BTN3A (MFI),BTN3A [2],highest BTN3A upregulation
NC(N)=N/N=C/c1cccc(Cl)c1Cl [raphin1],BTN3A surface expression,BTN3A [1],negligible effects
Cc1ccc(Oc2nc3cc(-c4ccc5c(ccn5C)c4)c(Cl)cc3[nH]2)cc1C(=O)O [Compound 991],surface BTN3A (MFI),BTN3A [2],Upregulation of surface BTN3A
same,staining with G115 Vγ9Vδ2 TCR tetramer compared to vehicle control-treated cells,Daudi-Cas9 cells [3]; 80 μM,about five times higher
same,BTN3A1 transcript level by qPCR,BTN3A1 transcripts,transcriptionally upregulated
same,BTN3A2 transcript level by qPCR,BTN3A2 transcripts,transcriptionally upregulated
same,BTN2A1 transcript level by qPCR,BTN2A1 transcripts,transcriptionally upregulated
N#Cc1c(O)c2c(-c3ccc(-c4ccccc4O)cc3)csc2[nH]c1=O [A-769662],surface BTN3A (MFI),BTN3A [2],Upregulation of surface BTN3A
antimycin A,surface BTN3A (MFI),BTN3A [2],highest BTN3A upregulation
"N#CC(C#N)=NNc1ccc(OC(F)(F)F)cc1 [FCCP, carbonyl cyanide-4 (trifluoromethoxy) phenylhydrazone]",surface BTN3A (MFI),BTN3A [2],highest BTN3A upregulation
"O=CC[C@@H](O)[C@H](O)[C@H](O)CO [2-DG, 2-deoxy-D-glucose]",surface BTN3A (MFI),BTN3A [2],upregulated BTN3A levels
O=C(/C=C/c1ccccc1)NC(NC(=S)Nc1ccc(Cl)cc1)C(Cl)(Cl)Cl (stereo not drawn) [Sal003],BTN3A surface expression,BTN3A [1],downregulation
N=C(N)N/N=C/c1c(Cl)cccc1Cl [guanabenz],BTN3A surface expression,BTN3A [1],negligible effects
c1cc(-c2cnn3cc(-c4ccc(OCCN5CCCCC5)cc4)cnc23)ccn1 [Compound C],"BTN3A upregulation caused by OXPHOS inhibition (rotenone, oligomycin, FCCP) or glycolysis inhibition (2-DG)","BTN3A [6]; WT Daudi-Cas9 cells co-treated with Compound C, 72 hours",neutralized
same,AICAR-induced BTN3A upregulation,"BTN3A [6]; WT Daudi-Cas9 cells co-treated with increasing amounts of Compound C and AICAR, 72 hours",decreased the AICAR-induced BTN3A upregulation
same,BTN3A levels vs vehicle control,"BTN3A [6]; co-treated with AICAR, Compound C",falling well below those observed in the vehicle control
C=C(C)[C@H]1Cc2c(ccc3c2O[C@@H]2COc4cc(OC)c(OC)cc4[C@@H]2C3=O)O1 [rotenone],surface BTN3A (MFI),BTN3A [2],BTN3A upregulation at two lower doses and a downregulation at one higher dose
O=C(/C=C/c1ccccc1)NC(NC(=S)Nc1cccc2cccnc12)C(Cl)(Cl)Cl (stereo not drawn) [salubrinal],BTN3A surface expression,BTN3A [1],negligible effects
"RFXAP_ACGAGGAGACTCACTCGGG: library sgRNA targeting RFXAP (listed as DNA, chemistry not fully specified)",score,"Daudi-Cas9 cells [7]; MAGeCK sgRNA test, co-culture screen",6.9897
same,LFC,"Daudi-Cas9 cells [7]; log-fold change of sgRNA, surviving cells after co-culture vs baseline, MAGeCK",2.2103
same,treat mean,"Daudi-Cas9 cells [7]; sgRNA abundance in surviving Daudi-Cas9 KO cells after 24 hours Vγ9Vδ2 T cell co-culture with zoledronate, MAGeCK",1110.2
same,high_in_treatment,Daudi-Cas9 cells [7]; sgRNA enriched (TRUE) or depleted (FALSE) after T cell co-culture,TRUE
